# Residues, ends and D or L forms follow the SMILES beside them.
# Legend:
# [1] = From the text: Stability constants for proton and metal complexes were obtained from pH-metric titration curves registered at T = 298 K and ionic strength 0.1 M (KCl). The potentiometric apparatus was previously described. Solutions were titrated with 0.1 M carbonate-free KOH. The electrode was daily calibrated for hydrogen ion concentration by titrating HNO3 with the standard base solution, under the same experimental conditions as above. The asymmetry potential and the slope of the electrode couple were computed by means of […][41] and Glee[42] programs. The purities and exact concentrations of the ligand solutions were determined by the Gran method. The […][44] program was employed for the overall formation constant (β) calculations, referred to the following equilibrium equation: pM + qL + rH ⇆ MpLqHr (charges omitted; p is 0 in the case of ligand protonation; r can be negative). The computed standard deviations (referring to random errors only) were given by the program itself and are shown in parentheses as uncertainties on the last significant figure. Hydrolysis constants for metal ions were taken from the literature[45],[46]. The distribution and competition diagrams were computed using the HYSS program.
# 1. Wild-type calcitermin: thermodynamic data
# Wild-type calcitermin (WT) has been previously investigated by our research group in aqueous solutions and ionic medium NaClO4.1 For the sake of comparison, potentiometric studies of WT and its copper and zinc complexes have been performed in a different ionic medium (KCl 0.1 M). The study of the speciation under different experimental conditions, changing ionic medium and metal-ligand ratio, is essential to comprehensively describe the thermodynamics of calcitermin, which is usually found in multicomponent media like biological fluids.
# Table S1. Equilibrium constants for protonation of WT and its Cu2+ and Zn2+ complex formation at T = 298 K and I = 0.1 M (KCl). Values in parentheses are standard deviations on the last significant figure.
# in vitro = details: human, pH 7.4
# Procedure: Each peptide (C = 1·10^–4 M) and metal complex (metal:ligand ratio 1:1) was incubated in a sample containing 1 ml of human plasma (obtained as a pool of 40 individuals from the University Hospital of Ferrara) and 1 ml of ammonium acetate buffer (pH 7.4) at 37 °C. L-phenylalaninol is added as internal standard. At regular time intervals, 200 μl aliquots were taken and enzymatic reaction was blocked by adding 300 μl of HClO4 0.5 M. The sample was then centrifugated for 6 min at 14,000 × g. The supernatant was then filtered and analysed by HPLC. The analytical column was an Agilent Poroshell 120 SB-C18 (4.6 × 100 mm, 2.7 μm, pore size 120 Å). Flow rate = 0.5 ml/min, mobile phase H2O + 0.1% v/v TFA, linear gradient from 0 to 60% of acetonitrile + 0.1% v/v TFA over 30 min for the elution of peptides, temperature 25 °C, detection wavelength 210 nm. […] Informed consent was obtained from all subjects and/or their legal guardian(s) prior to the donation of blood samples. All experimental protocols were approved by the National Research and Research Transversal Processes boards at University of Ferrara. All methods were carried out in accordance with relevant guidelines and regulations.
# [2] = T = 298 K, I = 0.1 M (KCl), charges omitted
# [3] = Table S1, T = 298 K, I = 0.1 M (KCl), charges omitted
Structure (SMILES),pKa [CuH2L] [1],pKa [CuH-1L] [1],pKa [CuHL] [1],pKa [CuL] [1],pKa [ZnHL] [1],pKa [ZnL] [1],"logβ [CuH2L] [1, 2]","logβ [CuH-1L] [1, 2]","logβ [CuHL] [1, 2]","logβ [CuL] [1, 2]","logβ [ZnHL] [1, 2]","logβ [ZnL] [1, 2]",half-life (in vitro) [min],pKa [ZnH2L] [1],"logβ [ZnH2L] [1, 2]","logβ [CuH3L] [1, 2]","logβ [CuH4L] [1, 2]","logβ [CuH5L] [1, 2]","logβ [ZnH3L] [1, 2]","logβ [ZnH4L] [1, 2]",also measured
"CC[C@H](C)[C@H](NC(=O)[C@H](C)NC(=O)[C@@H](NC(C)=O)C(C)C)C(=O)N[C@@H](C)C(=O)N[C@@H](CC(C)C)C(=O)N[C@@H](CCCCN)C(=O)N[C@@H](C)C(=O)N[C@@H](C)C(=O)N[C@@H](Cc1c[nH]cn1)C(=O)N[C@@H](Cc1ccc(O)cc1)C(=O)N[C@@H](Cc1c[nH]cn1)C(=O)N[C@H](C(=O)N[C@@H](Cc1c[nH]cn1)C(=O)N[C@@H](CCCCN)C(=O)N[C@@H](CCC(=O)O)C(=O)O)[C@@H](C)O [L1, Ac-VAIALKAAHYHTHKE] (Ac-VAIALKAAHYHTHKE-OH)",4.40,6.88,5.38,6.59,5.80,7.33,18.21(3),1.84(3),13.81(2),8.43(2),11.00(5),5.21(2),135,–,–,–,–,–,–,–,–
"CC[C@H](C)[C@H](NC(=O)[C@H](C)NC(=O)[C@@H](NC(C)=O)C(C)C)C(=O)N[C@@H](C)C(=O)N[C@@H](CC(C)C)C(=O)N[C@@H](CCCCN)C(=O)N[C@@H](C)C(=O)N[C@@H](C)C(=O)N[C@@H](Cc1c[nH]cn1)C(=O)N[C@@H](Cc1ccc(O)cc1)C(=O)N[C@@H](Cc1c[nH]cn1)C(=O)N[C@H](C(=O)N[C@@H](Cc1c[nH]cn1)C(=O)N[C@@H](CCCCN)C(=O)N[C@@H](CCC(=O)O)C(N)=O)[C@@H](C)O [L2, Ac-VAIALKAAHYHTHKE-NH2] (Ac-VAIALKAAHYHTHKE-NH2)",5.49,9.44,6.30,6.70,7.63,8.93,23.06(4),4.57(6),17.57(5),11.27(7),14.15(4),6.52(5),~68,6.14,20.29(6),–,–,–,–,–,pKa [CuH-2L] [1]: 9.91; pKa [ZnH-1L] [1]: 9.44
"CC[C@H](C)[C@H](NC(=O)[C@H](C)NC(=O)[C@@H](N)C(C)C)C(=O)N[C@@H](C)C(=O)N[C@@H](CC(C)C)C(=O)N[C@@H](CCCCN)C(=O)N[C@@H](C)C(=O)N[C@@H](C)C(=O)N[C@@H](Cc1c[nH]cn1)C(=O)N[C@@H](Cc1ccc(O)cc1)C(=O)N[C@@H](Cc1c[nH]cn1)C(=O)N[C@H](C(=O)N[C@@H](Cc1c[nH]cn1)C(=O)N[C@@H](CCCCN)C(=O)N[C@@H](CCC(=O)O)C(N)=O)[C@@H](C)O [L3, VAIALKAAHYHTHKE-NH2] (H-VAIALKAAHYHTHKE-NH2)",7.75,–,9.53,10.01,9.47,–,33.11(2),5.82(4),25.36(3),15.83(5),19.40(5),9.94(4),~20,8.65,28.06(4),40.00(3),46.21(2),51.38(2),35.75(6),43.07(3),"pKa [CuH3L] [1]: 6.90; pKa [CuH4L] [1]: 6.21; pKa [CuH5L] [1]: 5.16; pKa [ZnH3L] [1]: 7.69; pKa [ZnH4L] [1]: 7.32; pKa [ZnH5L] [1]: 5.6; logβ [ZnH5L] [1, 2]: 48.7(1)"
"CC[C@H](C)[C@H](NC(=O)[C@H](C)NC(=O)[C@@H](N)C(C)C)C(=O)N[C@@H](C)C(=O)N[C@@H](CC(C)C)C(=O)N[C@@H](CCCCN)C(=O)N[C@@H](C)C(=O)N[C@@H](C)C(=O)N[C@@H](Cc1c[nH]cn1)C(=O)N[C@@H](Cc1ccc(O)cc1)C(=O)N[C@@H](Cc1c[nH]cn1)C(=O)N[C@H](C(=O)N[C@@H](Cc1c[nH]cn1)C(=O)N[C@@H](CCCCN)C(=O)N[C@@H](CCC(=O)O)C(=O)O)[C@@H](C)O [WT, VAIALKAAHYHTHKE, reference compound] (H-VAIALKAAHYHTHKE-OH)",–,–,–,–,–,–,33.77(4),6.90(5),26.20(4),16.83(5),20.11(6),10.35(8),18 ± 3,–,28.59(5),40.77(4),46.97(3),52.07(3),36.47(5),43.55(3),"logβ [CuH6L] [1, 2]: 56.40(6); logβ [CuH-3L] [1, 2]: -14.19(5); logβ [ZnH5L] [1, 2]: 49.30(8); logβ [ZnH-1L] [1, 2]: -0.2(1); logβ [ZnH-2L] [1, 2]: -10.8(1); logK, line of [CuH2L] [1, 3]: 7.00; logK, line of [CuH3L] [1, 3]: 6.21; logK, line of [CuH4L] [1, 3]: 5.09; logK, line of [CuH5L] [1, 3]: 4.34; logK, line of [CuH-1L] [1, 3]: 9.93; logK, line of [CuHL] [1, 3]: 7.58; logK, line of [CuL] [1, 3]: 9.37; logK, line of [ZnH2L] [1, 3]: 7.87; logK, line of [ZnH3L] [1, 3]: 7.08; logK, line of [ZnH4L] [1, 3]: 5.75; logK, line of [ZnH-1L] [1, 3]: 10.5; logK, line of [ZnH-2L] [1, 3]: 10.7; logK, line of [ZnHL] [1, 3]: 8.48; logK, line of [ZnL] [1, 3]: 9.77"

# — PMC10600247, “Impact of C- and N-terminal protection on the stability, metal chelation and antimicrobial properties of calcitermin” (Scientific Reports, 2023)
